Test results as given in patent publication US20070213339A1 (Bayer Pharmaceuticals Corporation, priority 2004, published 2007).
pIC50: −log10 of the molar value.

Test system: Colo205 human colon carcinoma cell line
Assay: In vitro tumor cell proliferation assay (MTS, CellTiter 96 Aqueous One Solution)
Assay type: cell-based
Details: COLO 205, Colo205 cells, 72 hours compound exposure, MTS absorbance at 490 nm, read-out: IC50 (concentration of test compound required to inhibit proliferation of 50% of the cells)
Procedure: In Vitro Tumor Cell Proliferation Assay
The adherent H460 human non-small cell lung carcinoma and Colo205 human colon carcinoma cell lines were purchased from the American Type and Culture Collection (ATCC, Manassas, Va.) and maintained in RPMI-1640 growth media supplemented with 10% heat inactivated fetal bovine serum (Gibco, Invitrogen Corp. Grand Island, N.Y.). At 37° C. in a humidified atmosphere of 5% CO2.
The CellTiter 960 Aqueous One Solution kit, MTS, (Promega, Madison, Wis.) was used to measure proliferation of tumor cell lines in vitro. This method monitors the bioreduction of a tetrazolium dye as a measure of cell viability. On Day 0, exponentially growing cells were trypsinized, resuspended in RPMI-1640 growth media supplemented with 10% FCS, 100 u/ml of penicillin G and 100 ug/ml of streptomycin sulfate, and seeded at 2000 cells per well into 96 well microtiter plates. Cells were incubated overnight in a humidified atmosphere of 5% CO2 at 37° C. On Day 1, serial dilutions of compounds were prepared at 2× the finial assay concentration. One hundred microliters of 2× solution was added to test wells in duplicate and control wells received no test compound. The final drug concentration ranged from 0 to 10-20 um in a 5 point dose-response curve. Cells were incubated in the presence of test compounds in a humidified atmosphere of 5% CO2 at 37° C. for 72 hours. After 72 hours of compound exposure, 40 ul of Promega CellTiter 960 Aqueous One Solution was added to each well and absorbance at 490 n-M was measured using a multi-well plate reader. Percent inhibition of proliferation was calculated using the following formula: 100×(1−Absorbancetreated−Background/(Absorbancecontrol−Background)
Absorbancetreated=absorbance at 490 nm in test wells, cells with test compound
Absorbancecontrol=absorbance at 490 nm in control wells, cells with no test compound
Background=absorbance 490 nm in wells containing media and no cells
The concentration of test compound required to inhibit proliferation of 50% of the cells (IC50) was determined by linear regression analysis.
Representative compounds of the invention were tested in the above-described Colo205 human colon carcinoma cell line in vitro assay and found to inhibit human colon carcinoma cell proliferation, and are summarized as follows: […]

Cc1ccc(N2CCN(c3c(F)cc4c(=O)c(C(=O)O)cn(-c5ccc(CN6CCCC6)cc5)c4c3OC(F)(F)Cl)CC2)cc1C [Example 151, 8-[chloro(difluoro)methoxy]-7-[4-(3,4-dimethylphenyl)piperazin-1-yl]-6-fluoro-4-oxo-1-[4-(pyrrolidin-1-ylmethyl)phenyl]-1,4-dihydroquinoline-3-carboxylic acid]
pIC50: > 6.30

O=C(O)c1cn(-c2cccc(CN3CCCCC3)c2)c2c(OC(F)(F)F)c(N3CCN(c4ccccn4)CC3)c(F)cc2c1=O [Example 140, 6-fluoro-4-oxo-1-[3-(piperidin-1-yl-methyl)phenyl]-7-(4-pyridin-2-ylpiperazin-1-yl)-8-(trifluoromethoxy)-1,4-dihydroquinoline-3-carboxylic acid]
pIC50: 5.70 to 6.30

COc1cc(CN2CCCCC2)ccc1-n1cc(C(=O)O)c(=O)c2cc(F)c(N3CCN(c4ccc(F)cc4)CC3)c(Cl)c21 [Example 177, 8-chloro-6-fluoro-7-[4-(4-fluorophenyl)-piperazine-1-yl]-1-(2-methoxy-4-piperidine-1-ylmethyl-phenyl)-4-oxo-1,4-dihydroquinoline-3-carboxylic acid]
pIC50: > 6.30

CCN(CC)Cc1ccc(-n2cc(C(=O)O)c(=O)c3cc(F)c(N4CCN(c5ccccc5F)CC4)c(OC)c32)cc1 [Example 114, 1-{4-[(diethylamino)methyl]phenyl}-6-fluoro-7-[4-(2-fluorophenyl)piperazin-1-yl]-8-methoxy-4-oxo-1,4-dihydroquinoline-3-carboxylic acid]
pIC50: > 6.30

COc1c(N2CCN(c3ccccc3F)CC2)c(F)cc2c(=O)c(C(=O)O)cn(-c3ccc(CN(C)C)cc3)c12 [Example 94, 1-{4-[(dimethylamino)methyl]phenyl}-6-fluoro-7-[4-(2-fluorophenyl)piperazin-1-yl]-8-methoxy-4-oxo-1,4-dihydroquinoline-3-carboxylic acid]
pIC50: 5.70 to 6.30

O=C(O)c1cn(-c2ccc(CN3CC[C@H](O)C3)cc2)c2c(Cl)c(N3CCN(c4ccc(F)cc4)CC3)c(F)cc2c1=O [Example 29, 8-chloro-6-fluoro-7-[4-(4-fluorophenyl)-piperazin-1-yl]-1-(4-{[(3S)-3-hydroxypyrrolidin-1-yl]methyl}phenyl)-4-oxo-1,4-dihydroquinoline-3-carboxylic acid]
pIC50: > 6.30

O=C(O)c1cn(-c2cccc(CN3CCCCC3)c2)c2c(Cl)c(N3CCN(c4ccccc4F)CC3)c(F)cc2c1=O [Example 63, 8-chloro-6-fluoro-7-[4-(2-fluorophenyl)-piperazin-1-yl]-4-oxo-1-[3-(piperidin-1-ylmethyl)phenyl]-1,4-dihydroquinoline-3-carboxylic acid]
pIC50: 4.70 to 5.70

CN(C)Cc1ccc(-n2cc(C(=O)O)c(=O)c3cc(F)c(N4CCN(c5ccc(F)cc5)CC4)c(OC(F)(F)F)c32)cc1 [Example 131, 1-{4-[(dimethylamino)methyl]phenyl}-6-fluoro-7-[4-(4-fluorophenyl)piperazin-1-yl]-4-oxo-8-(trifluoromethoxy)-1,4-dihydroquinoline-3-carboxylic acid]
pIC50: > 6.30

COc1c(N2CCN(c3ccccc3[N+](=O)[O-])CC2)c(F)cc2c(=O)c(C(=O)O)cn(-c3ccc(CN4CCCCC4)cc3)c12 [Example 91, 6-fluoro-8-methoxy-7-[4-(2-nitrophenyl)-piperazin-1-yl]-4-oxo-1-[4-(piperidin-1-ylmethyl)phenyl]-1,4-dihydroquinoline-3-carboxylic acid]
pIC50: 5.70 to 6.30

CCN(CC)Cc1ccc(-n2cc(C(=O)O)c(=O)c3cc(F)c(N4CCN(c5ccc(C#N)cc5)CC4)c(OC)c32)cc1 [Example 108, 7-[4-(4-cyanophenyl)piperazin-1-yl]-1-{4-[(diethylamino)methyl]phenyl}-6-fluoro-8-methoxy-4-oxo-1,4-dihydroquinoline-3-carboxylic acid]
pIC50: > 6.30

O=C(O)c1cn(-c2ccc(CN3CCCC3)nc2)c2c(Cl)c(N3CCN(c4ccc(Cl)cc4)CC3)c(F)cc2c1=O [Example 38, 8-chloro-7-[4-(4-chlorophenyl)piperazin-1-yl]-6-fluoro-4-oxo-1-[6-(pyrrolidin-1-ylmethyl)pyridin-3-yl]-1,4-dihydroquinoline-3-carboxylic acid]
pIC50: > 6.30

CCN(CC)Cc1ccc(-n2cc(C(=O)O)c(=O)c3cc(F)c(N4CCN(c5cccc(Cl)c5)CC4)c(OC)c32)cc1 [Example 115, 7-[4-(3-chlorophenyl)piperazin-1-yl]-1-{4-[(diethylamino)methyl]phenyl}-6-fluoro-8-methoxy-4-oxo-1,4-dihydroquinoline-3-carboxylic acid]
pIC50: > 6.30

COc1c(N2CCN(c3ccccc3F)CC2)c(F)cc2c(=O)c(C(=O)O)cn(-c3ccc(CN4CCCC4)cc3)c12 [Example 75, 6-fluoro-7-[4-(2-fluorophenyl)piperazin-1-yl]-8-methoxy-4-oxo-1-[4-(pyrrolidin-1-ylmethyl)phenyl]-1,4-dihydroquinoline-3-carboxylic acid]
pIC50: 5.70 to 6.30

N#Cc1cccnc1N1CCN(c2c(F)cc3c(=O)c(C(=O)O)cn(-c4ccc(CN5CCCC5)cc4)c3c2OC(F)(F)Cl)CC1 [Example 149, 8-[chloro(difluoro)methoxy]-7-[4-(3-cyanopyridin-2-yl)piperazin-1-yl]-6-fluoro-4-oxo-1-[4-(pyrrolidin-1-ylmethyl)-phenyl]-1,4-dihydroquinoline-3-carboxylic acid]
pIC50: > 6.30

COc1cc(CN2CCCC2)ccc1-n1cc(C(=O)O)c(=O)c2cc(F)c(N3CCN(c4ccc(F)cc4)CC3)c(Cl)c21 [Example 176, 8-chloro-6-fluoro-7-[4-(4-fluorophenyl)-piperazine-1-yl]-1-(2-methoxy-4-pyrrolidin-1-ylmethyl-phenyl)-4-oxo-1,4-dihydroquinoline-3-carboxylic acid]
pIC50: > 6.30

CN(C)Cc1ccc(-n2cc(C(=O)O)c(=O)c3cc(F)c(N4CCN(c5ncccn5)CC4)c(OC(F)(F)F)c32)cc1 [Example 128, 1-{4-[(dimethylamino)methyl]phenyl}-6-fluoro-4-oxo-7-(4-pyrimidin-2-ylpiperazin-1-yl)-8-(trifluoromethoxy)-1,4-dihydroquinoline-3-carboxylic acid]
pIC50: > 6.30

COc1c(N2CCN(c3ncccn3)CC2)c(F)cc2c(=O)c(C(=O)O)cn(-c3ccc(CN4CCCC4)cc3)c12 [Example 73, 6-fluoro-8-methoxy-4-oxo-7-(4-pyrimidin-2-ylpiperazin-1-yl)-1-[4-(pyrrolidin-1-ylmethyl)phenyl]-1,4-dihydroquinoline-3-carboxylic acid]
pIC50: > 6.30

CCN(CC)Cc1ccc(-n2cc(C(=O)O)c(=O)c3cc(F)c(N4CCN(c5ccc(C(F)(F)F)cc5)CC4)c(OC)c32)cc1 [Example 112, 1-{4-[(diethylamino)methyl]phenyl}-6-fluoro-8-methoxy-4-oxo-7-{4-[4-(trifluoromethyl)phenyl]piperazin-1-yl}-1,4-dihydroquinoline-3-carboxylic acid]
pIC50: 4.70 to 5.70

O=C(O)c1cn(-c2ccc(CNC3CCC3)cc2)c2c(Cl)c(N3CCN(c4ncccn4)CC3)c(F)cc2c1=O [Example 191, 8-chloro-1-(4-cyclobutylaminomethyl-phenyl)-6-fluoro-4-oxo-7-(4-pyrimidin-2-yl-piperazin-1-yl)-1,4-dihydroquinoline-3-carboxylic acid]
pIC50: > 6.30

CON(C)Cc1ccc(-n2cc(C(=O)O)c(=O)c3cc(F)c(N4CCN(c5ncccc5C#N)CC4)c(Cl)c32)cc1 [Example 54, 8-chloro-7-[4-(3-cyanopyridin-2-yl)piperazin-1-yl]-6-fluoro-1-(4-{[methoxy(methyl)amino]methyl}phenyl)-4-oxo-1,4-dihydroquinoline-3-carboxylic acid]
pIC50: 4.70 to 5.70

O=C(O)c1cn(-c2ccc(CNC3CCCC3)cc2)c2c(OC(F)(F)F)c(N3CCN(c4ccc(F)cc4)CC3)c(F)cc2c1=O [Example 182, 1-(4-cyclopentylaminomethyl-phenyl)-6-fluoro-7-[4-(4-fluorophenyl)-piperazine-1-yl]-4-oxo-8-trifluoromethoxy-1,4-dihydroquinoline-3-carboxylic acid]
pIC50: > 6.30

N#Cc1ccc(N2CCN(c3c(F)cc4c(=O)c(C(=O)O)cn(-c5ccc(CN6CCCC6)cc5F)c4c3Cl)CC2)cc1 [Example 48, 8-chloro-7-[4-(4-cyanophenyl)piperazin-1-yl]-6-fluoro-1-[2-fluoro-4-(pyrrolidin-1-ylmethyl)phenyl]-4-oxo-1,4-dihydroquinoline-3-carboxylic acid]
pIC50: > 6.30

COc1c(N2CCN(c3ccccc3[N+](=O)[O-])CC2)c(F)cc2c(=O)c(C(=O)O)cn(-c3ccc(CN4CCCC4)cc3)c12 [Example 84, 6-fluoro-8-methoxy-7-[4-(2-nitrophenyl)-piperazin-1-yl]-4-oxo-1-[4-(pyrrolidin-1-ylmethyl)phenyl]-1,4-dihydroquinoline-3-carboxylic acid]
pIC50: 5.70 to 6.30
